In article PMC11428291, “Peptide and Protein Cysteine Modification Enabled by Hydrosulfuration of Ynamide” (ACS Central Science, 2024):
Values belong to the compound of their own block, whether it stands above or below them.

How the values were obtained:
[1] = Water solubility of ynamides (qualitative); assay type: physicochemical; details: qualitative statement
Experimental: To this end, N-methylynetoluenesulfonamide (MYTsA, 2a), the first-generation ynamide coupling reagent for peptide synthesis,[39] was tested in our model reaction as a reference. […] Further optimization was performed to implement this chemistry under biocompatible conditions, such as aqueous media, near-neutral pH (6–8), and physiological temperature. In parallel, the poor water-solubility of 2a led to a sluggish reaction in an MeCN/phosphate buffer mixture (pH 8, 3:7), giving 3aa in 80% yield over 24 h. Enhancing the solubility by replacing the methyl group of R^2 with a 2-hydroxyethyl group (2b) led to a more efficient reaction, with an 89% yield of 3ab. […] Substituting the p-toluenesulfonyl (Ts) group of 2a with a trifluoromethylsulfonyl (triflyl, Tf, 2e) group enhanced both the solubility in water and the reaction efficiency due to its stronger electron-withdrawing ability and increased hydrophilicity. This modification facilitated the reaction to completion within 20 min in phosphate buffer with minimal MeCN (5%), yielding the product (3ae) as a single Z-isomer in 95% yield, confirmed by NMR (Z:E > 99:1; see zoom-in ^1H NMR spectra in Figure 2b and details in SI). […] This underscores the versatility of ynamide functionalization via R^2 group modification, promising broad applicability in synthesizing diverse conjugates. […]

[2] = Reaction rate study: hydrosulfuration of glutathione (GSH) to ynamide; details: pseudo-first order, ynamide 0.25 mM, GSH 2.5, 5 and 10 mM, 5% MeCN, pH 8.0, 0.2 M PBS, 37 °C, UV-Visible absorbance at 244 nm, triplicate
Experimental: In line with our proposal, the conjugation of the optimal ynamide (2e) and peptide (1a) was sensitive to pH and was sluggish under neutral conditions (pH 6–7.5, Figure S14). […] To further dissect the reaction mechanism, the reaction was carried out in the presence of different types of radical scavengers; no negative effect on the reaction efficacy was observed. In addition, the thiyl radical chemistry of ynamide was examined in aqueous medium, but no reaction was detected (see the SI for details, Schemes S15–S16).
9) Reaction Rate study of the Peptide Conjugates
HO N N OH PBS, pH = 8.0, MeCN, 37 °CHONN OH
Figure S64.Reaction Rate study of the Peptide Conjugates
The reaction between Ynamide (2e) and glutathione (GSH) was measured under pseudo- first order conditions with 10, 20 and 40 equivalents of GSH by real-time monitor of conjugate reactio n using UV-Visible absorbance at 244 nm (max absorbance wavelength for 3me). Solutions were prepared in MeCN (5%), pH 8.0, 0.2 M PBS with Ynamide (0.25 mM) and GSH (2.5 mM, 5 mM and 10 mM). Data was recorded for 2-5 min and performed in triplicate at 37 ℃. The averages of the observed rates (kobs), determined by nonlinear regression analysis of the data points were plotted against the concentration of GSH and the bimolecular rate constant k2, […]
8. Trastuzumab R eduction […]

[3] = assay type: physicochemical; details: conjugate 10 μM, 10 mM H2O2 in buffer, pH 4, 8 and 10, 37 °C, 24 h (Figure S59)
Source text: (§1) The stability of the conjugated products is of the utmost importance for developing a powerful peptide and protein modification strategy.[6] […] Moreover, the cleavage of 3ae in the presence of external thiol to regenerate the unmodified 1a, which occurred in other methods,[16b],[33a] was not detected in our hands (using 2-mercaptoethanol, Figure S58). In contrast, the iodoacetamide (IAM) peptide conjugate decomposed under the aforementioned conditions (Figures S61–S63).
(§2) Figure S58.Stability of 3ae ( 1mM) in the presence of external thiol
(§3) 4) Stability of 3ae (10 μM) when treated with large excess ((10mM H2O2 in buffer) of
Figure S59.Stability of 3ae ( 10μM) when tr eated with large excess of H 2O2 (at pH 4, […]
7) Stability of iodoacetamide labelling product (10 μM) when treated with large
excess ((10mM H2O2 in buffer)of H 2O2 (at pH 2 and 13 at 37 °C) for 24 h
Figure S62.Stability of iodoacetamide labelling product (10 μM) when treated with
large excess of H2O2 (at pH 2 and 13at 37 °C)
8) Stability of iodoacetamide labelling product (10 μM) when treated with bovine
Figure S63.Stability of iodoacetamide labelling product (10 μM) when treated with […]

[4] = Stability of peptide conjugate in the presence of external thiol (2-mercaptoethanol); assay type: physicochemical; details: conjugate 1 mM, pH 8.0 (Figure S58)
Source text: as §1
7. Stability Study and Reaction Rate study of the Peptide Conjugates
1) Stability study of the peptide conjugate 3ae
Figure S56.Stability study of the peptide conjugate 3ae
2) Stability of 3ae (1 mM) in buffers at pH 2.0, pH 8.0, pH 10.0, pH 13.0 at 37 °C for
Figure S57.Stability of 3ae ( 1mM) in buffers at pH 2.0, pH 8.0,pH 10.0,pH 13.0
3) Stability of 3ae (1 mM) in the presence of external thiol ( 2- mercaptoethanol)，pH […]
as §2, §3
Figure S59.Stability of 3ae ( 10μM) when tr eated with large excess of H 2O2 (at pH 4,

Water-solubility [1]: poor
Structure (SMILES): C#CN(C)S(=O)(=O)c1ccc(C)cc1 [2a, N-methylynetoluenesulfonamide]

Solubility in water relative to 2a ([1]; compared with 2a): enhanced
Structure (SMILES): C#CN(CCO)S(=O)(=O)C(F)(F)F [2e]
Apparent second-order rate constant for the thiol conjugation (k2, app.) [2]: 0.2399 ± 0.002 M^–1 s^–1

β-syn elimination when treated with a large excess of H2O2 [3]: did not undergo β-syn elimination | Cleavage in the presence of external thiol to regenerate the unmodified 1a [4]: not detected
Structure (SMILES): CCOC(=O)[C@H](CS/C=C\N(CCO)S(=O)(=O)C(F)(F)F)NC(=O)[C@H](C)NC(=O)OC(C)(C)C [3ae]
